The record followed here is publication PMC11642994, “AGC family kinase of Entamoeba histolytica: Decoding the members biochemically” (PLOS Pathogens, 2024).

As usually defined, the Kd is a measure of binding affinity in units of concentration. Read a high Kd as weaker binding.

Holding throughout (format): binding
The target of one test is T1, KDD2 (Entamoeba histolytica, UniProt C4M3C2, D242A/K147A).
T1 sequence (C4M3C2 1-434 K147A/D242A): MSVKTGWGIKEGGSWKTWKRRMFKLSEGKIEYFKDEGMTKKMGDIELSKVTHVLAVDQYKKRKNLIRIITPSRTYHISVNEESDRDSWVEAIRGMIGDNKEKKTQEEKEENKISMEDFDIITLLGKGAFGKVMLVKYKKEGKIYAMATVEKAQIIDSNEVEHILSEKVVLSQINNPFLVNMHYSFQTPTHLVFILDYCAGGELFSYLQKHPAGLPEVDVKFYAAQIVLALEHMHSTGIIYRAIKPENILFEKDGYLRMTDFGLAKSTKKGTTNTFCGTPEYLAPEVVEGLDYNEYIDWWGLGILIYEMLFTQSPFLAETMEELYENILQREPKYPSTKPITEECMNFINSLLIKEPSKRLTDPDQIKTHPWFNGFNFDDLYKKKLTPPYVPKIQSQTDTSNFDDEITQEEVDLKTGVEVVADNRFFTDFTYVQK
Put plainly: Microscale Thermophoresis (MST), kinase-dead EhAGCK2 (KDD2). The conditions noted are these: KDD2 (K147A and D242A), Tris-Cl pH 8, 25°C, peptide 500 μM to 153 nM, n = 6. The protocol:
(§1) Microscale Thermophoresis (MST) was performed in the presence of full-length and kinase-dead EhAGCK1 and EhAGCK2 proteins, along with HsGSK3, EhRhoGEF, and EhCoactosin peptide substrates. Proteins were labelled using a His-tag labelling kit, RED-tris-NTA 2nd Generation (Nano Temper Technologies, San Francisco, CA, USA). A brief labelling reaction was performed in a buffer containing (50 mM Tris-Cl pH 8, 150 mM NaCl, 1 mM β-ME and 5% glycerol) with a protein concentration of 20 nM and a molar dye: protein ratio of approximately 3:1. The mixture was kept at room temperature for 30 min, followed by centrifugation at 15000 g for 10 min at 4°C. A series of 16 1:1 dilutions were prepared using the same buffer, resulting in peptide concentrations ranging from 500 μM to […]. Following a 10 min incubation, the samples were loaded into standard monolith NT.115 capillaries from Nano Temper Technologies. […] Data from three independently pipetted measurements were analysed using MO. […]
(§2) The kinase assay data presented here are the mean ± standard error (SE) of n≥3 of three independent experiments. The Km and Vmax were determined from a direct, nonlinear fit of [V] versus [S] plots using the Michaelis-Menten equation: V=Vmax[S]/Km+[S] using the GraphPad Prism 9.0 software package (GraphPad Software Inc., CA, USA). […]
For orientation: MST reads how a fluorescent partner responds to local heating, with and without ligand.

The target of the next test is T2, KDD1 (Entamoeba histolytica, UniProt C4M2W0, D241A/K147A).
T2 sequence (C4M2W0 1-433 K147A/D241A): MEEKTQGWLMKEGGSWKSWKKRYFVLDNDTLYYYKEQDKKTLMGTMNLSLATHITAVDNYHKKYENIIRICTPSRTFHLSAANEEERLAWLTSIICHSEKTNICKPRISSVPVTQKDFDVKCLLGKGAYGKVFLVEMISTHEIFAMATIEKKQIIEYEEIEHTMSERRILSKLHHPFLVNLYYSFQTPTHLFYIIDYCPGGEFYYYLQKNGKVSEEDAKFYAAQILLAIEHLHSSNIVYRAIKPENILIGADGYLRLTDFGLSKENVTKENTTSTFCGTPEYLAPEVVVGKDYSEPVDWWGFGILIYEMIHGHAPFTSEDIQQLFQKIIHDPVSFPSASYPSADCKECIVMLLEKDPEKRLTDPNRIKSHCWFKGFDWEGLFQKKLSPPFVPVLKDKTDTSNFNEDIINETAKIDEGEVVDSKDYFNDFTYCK
Put plainly: Microscale Thermophoresis (MST), kinase-dead EhAGCK1 (KDD1). The conditions noted are these: KDD1 (K147A and D241A), Tris-Cl pH 8, 25°C, peptide 500 μM to 153 nM, n = 6. As to the method:
as §1, §2

A further test deals with EhAGCK1 WT (Entamoeba histolytica, UniProt C4M2W0). Put plainly: Microscale Thermophoresis (MST), EhAGCK1 WT. The conditions noted are these: MST, EhAGCK1. The protocol: as §1, §2

No end group written: not given here.

In turn, KAGGADYSFNTTSN [Coactosin] had a Kd on KDD2 of 11.9 µM.

For SSPSSVPAAQSTTPVNVPK [RhoGEF], at KDD1, the Kd was 11.9 µM. For the same sequence, at EhAGCK1 WT, the “KD range in words” value is “within the nanomolar range”.
